Experimental data: ChEMBL document CHEMBL1150816, “Bioactive constituents of the roots of Licania intrapetiolaris” (J Nat Prod, 2001)
Values after ≈ are worked out from the molar mass of the structure shown. Active and inactive are the calls of the source. No cut-off for these calls is given here.

Assays:
Aspergillus niger = experiment: Antifungal activity against Aspergillus niger after 24 hrs; assay type: functional
KB = experiment: Cytotoxicity against human KB cells after 72 hrs by spectrophotometric method; assay type: functional, cell-based

SMILES	inhibition zone (IZ) (Aspergillus niger)	EC50 (KB)
C[C@@H]1[C@H](O)[C@@H](C)/C=C/C=C/C=C/C=C/C=C/C=C/C=C/[C@H](O[C@@H]2O[C@H](C)[C@@H](O)[C@H](N)[C@@H]2O)C[C@@H]2O[C@](O)(C[C@@H](O)C[C@@H](O)[C@H](O)CC[C@@H](O)C[C@@H](O)CC(=O)O[C@H]1C)C[C@H](O)[C@H]2C(=O)O [AMPHOTERICIN B]	18 mm	
CC(=O)OC(C)(C)/C=C/C(=O)[C@](C)(O)[C@H]1[C@H](O)C[C@@]2(C)[C@@H]3CC=C4[C@H](C[C@H](O)C(=O)C4(C)C)[C@]3(C)C(=O)C[C@]12C [CUCURBITACIN B]		0.008 µg/mL (≈ 0.0143 µM)
C=CC(=C)CC[C@]1(C)[C@H](C)C[C@H](O)[C@@]23C(=C[C@@H](OC(=O)c4ccc(O)cc4)C[C@@H]12)[C@@H](OC)O[C@H]3OC(C)=O [INTRAPETACIN A]	inactive	2 µg/mL (≈ 3.8 µM)
C=CC(=C)CC[C@]1(C)[C@H](C)C[C@H](O)[C@@]23C(=C[C@@H](OC(=O)c4ccc(O)cc4)C[C@@H]12)[C@@H](OC(C)=O)O[C@H]3OC(C)=O [INTRAPETACIN B]	21 mm	0.8 µg/mL (≈ 1.44 µM)
